In US7635464B2, “Selective targeting of apoptotic cells” (New South Innovations Pty Limited, priority 2001, dated 2009):
Residues, ends and D or L forms follow the SMILES beside them. *: point of attachment. Cbz = O=C(OCc1ccccc1)*; CH2F = FC*

Assays:
HT1080 cells [1] = test: Labelling of cells with GSAO-B (lysate SDS-PAGE, avidin-peroxidase blot, PDI Western blot); assay type: cell-based, human; conditions: 5-fold molar excess (50 μM) of dimercaptopropanol
Experimental: HT1080 cells were for 20 h with 1 μg.mL^−1 camptothecin and labeled with 10 μM GSAO and annexin V-PE as described above for labelling with GSAO-F and annexin V-PE. Cells were sorted on the basis of their annexin V-PE fluorescence, washed three times with PBS and 4×10^4 cells were lysed in 40 μL of RIPA buffer (50 mM Tris-HCl, 0.5 M NaCl, 1% Triton X-100, 1% sodium deoxycholate, 0.1% SDS, 10 μM leupeptin, 10 μM aprotinin, 2 mM phenylmethylsulfonyl fluoride, 5 mM EDTA, pH 8.0) at 4° C. Equal amounts of lysate were electrophoresed on an 8-16% gradient SDS-polyacrylamide gel (Gradipore, Sydney), transferred to […] (PVDF) membrane (Millipore, Bedford, Mass.) and biotinylated proteins were detected with a 1:2000 dilution of avidin-peroxidase (Molecular Probes, Eugene, Oreg.). To identify proteins that had incorporated GSAO-B, 20 μl of RIPA lysate was incubated with 5 μl streptavidin-dynabeads (Dynal Biotech, Oslo, Norway) for 15 min at 4° C. The beads were then washed twice with RIPA buffer, resuspended in 20 μl SDS-PAGE loading buffer, resolved on SDS-PAGE, transferred to polyvinylidene difluoride membrane, and the PDI was detected by Western blot using 2 μg.mL^−1 of anti-PDI polyclonal antibodies (Donoghue et al., 2000) and 1:2000 dilution of goat anti-rabbit peroxidase-conjugated antibodies (Dako Corporation, Carpinteria, Calif.). […]

HT1080 cells [2] = test: Flow cytometry of GSAO- and annexin V-labeled cells; assay type: cell-based, human
Experimental: HT1080 cells were treated for 20 h with 1 μg.mL^−1 camptothecin (Calbiochem, San Diego, Calif.), then detached with PBS containing 2.5 mM EDTA and combined with cells that had detached during incubation. The cells were washed twice with annexin V binding buffer (10 mM Hepes, 140 mM NaCl, 2.5 mM CaCl2, pH 7.4), and 2×10^5 cells per treatment were incubated in 100 μL annexin V binding buffer containing 10 μM GSAO-F or GSAA-F for 15 min at room temperature with shaking. The cells were washed twice, then incubated for 15 min in 100 μL annexin V binding buffer containing 5 μl phycoerythrin-conjugated annexin V (annexin V-PE) (PharMingen, San Diego, Calif.) and 1 μl of a 100 μg.mL^−1 solution of propidium iodide (Molecular Probes, Eugene, Oreg.). The total volume was then made up to 500 μl with annexin V binding buffer, and the samples were transferred to ice. Flow cytometry was performed using a FACSstar flow cytometer (Beckton Dickson). Results are derived from 10^4 cells per sample. To test the effect of caspase inhibition on to GSAO-F uptake, cells were treated with camptothecin in the absence or presence of 10 μg.mL^−1 Z-VAD-FMK (carbobenzoxy-valyl-alanyl-aspartyl-[O-methyl]-fluoromethylketone) (Calbiochem-Novabiochem, San Diego, Calif.), then detached, washed and incubated in annexin V binding buffer containing 10 μM GSAO-F for 15 min. The cells were washed twice and subjected to flow cytometry.

[3] = test system: murine Lewis lung tumours; test: In vivo near-infrared imaging of Lewis lung tumours; design: species or system C57BL/6 mice; conditions: 0.8 mg/kg S.C.
Experimental: (§1) C57BL/6 (Jackson Labs, Bar Harbor, ME) mice bearing S.C. Lewis lung tumours, SCID (Massachusetts General Hospital, Boston, Mass.) bearing S.C. BxPC3 tumours or TRAMP (Greenberg et al., 1995) mice were given 0.8 mg/kg GSAO-Cy™5.5, GSAA-Cy™5.5 or Cy™5.5 dye alone in 0.1 mL of PBS containing 20 mM glycine by S.C. injection in the right hind flank. The S.C. tumours were established in the proximal dorsum.
(§2) The imaging system utilised a Leica Microsystems fluorescence microscope (Allendale, N.J.) with a 100 W halogen lamp source and a filter system for CY™5.5 (Chroma Technology, Brattleboro, Vt.). Anaesthetised mice were restrained in a light proof box and fluorescence detected by a 12-bit monochrome charged coupled device (Photometrics, Tuscon, Ariz.). Exposure time was 8 seconds with images digitally acquired as 16-bit Tiff files in IPLab (Scanalytics, Fairfax, Va.). White light images of the tumours were also acquired.

[4] = test system: human BxPC-3 pancreatic carcinoma tumours; test: In vivo near-infrared imaging of BxPC-3 tumours; design: species or system SCID mice; conditions: 0.8 mg/kg S.C.
Experimental: as §1, §2

HT1080 cells [5] = test: Confocal microscopy of GSAO- and annexin V-labelled cells; assay type: cell-based, human; conditions: camptothecin-treated; 10 μM GSAO-F
Experimental: HT1080 cells were treated for 20 h with 1 μg.mL^−1 camptothecin, then detached with PBS containing 10 mM EDTA, washed with annexin V binding buffer, and incubated for 15 min in annexin V binding buffer containing 10 μM GSAO-F and 1:20 (v/v) Alexa594conjugated annexin V (Molecular Probes, Eugene, Oreg.). The cells were then washed twice with annexin V binding buffer and pipetted onto a microscope slide. Transverse cell sections were captured using an Olympus BX60 microscope and an Optiscan F900e confocal unit and software (Optiscan, Notting Hill, Austrlia).

**Q.** Which “effect on labelling of apoptotic cellular proteins by GSAO-B” value (HT1080 cells [1]) does the source give for OCC(S)CS (centres unmarked) [dimercaptopropanol, 2,3-dimercaptopropanol, reference compound] here?
**A.** The value was “ablated”.

**Q.** How did the “increase in the proportion of cells with phycoerythrin fluorescence greater than 100 fluorescence units (annexin V-positive)” value (HT1080 cells [2]; camptothecin 1 μg.mL−1, 20 h vs untreated) turn out when CC[C@@]1(O)C(=O)OCc2c1cc1n(c2=O)Cc2cc3ccccc3nc2-1 [camptothecin, reference compound] was run?
**A.** Its value is 7.3 fold.

**Q.** How did the “labelling of Lewis lung tumours by controls” value [3] turn out when Cy™5.5 was run?
**A.** The value was “Neither GSAA-Cy™5.5 nor Cy™5.5 labelled”.

**Q.** What about the “tumour labelling at 24 hours” value [4] of the same compound?
**A.** The value was “Neither GSAA-Cy™5.5 (FIG. 11d(B)) nor Cy™5.5 (FIG. 11d(D)) labelled BxPC3 tumours”.

**Q.** With COC(=O)C[C@H](NC(=O)[C@H](C)NC(=O)[C@@H](NC(=O)OCc1ccccc1)C(C)C)C(=O)CF [Z-VAD-FMK, carbobenzoxy-valyl-alanyl-aspartyl-[O-methyl]-fluoromethylketone, reference compound] (Cbz-Val-Ala-Asp(OMe)-CH2F) as the compound, how does the “effect on the increase in GSAO-F positive cells seen with camptothecin treatment” value (HT1080 cells [2]; Z-VAD-FMK 10 μg.mL−1 during camptothecin treatment) read?
**A.** Its value is “substantially blocked”.

**Q.** Which “increase in the proportion of cells whose fluorescein fluorescence was greater than 1027 units” value (HT1080 cells [2]; 10 μM label, 15 min, camptothecin-treated vs untreated cells) does the source give for O=[As]c1ccc(NC(=O)CSC[C@H](NC(=O)CC[C@H](NC(=O)CCSCC(=O)Nc2ccc(-c3c4ccc(=O)cc-4oc4cc(O)ccc34)c(C(=O)O)c2)C(=O)O)C(=O)NCC(=O)O)cc1 (some centres unmarked) [GSAO-F] here?
**A.** Its value is 8.6 fold.

**Q.** What about the mean fluorescein fluorescence (HT1080 cells [2]; camptothecin-treated cell population, 10 μM label) of the same compound?
**A.** Its mean fluorescein fluorescence is 1400 units.

**Q.** And the mean fluorescein fluorescence (HT1080 cells [2]; untreated cells, 10 μM label)?
**A.** The mean fluorescein fluorescence was 255 units.

**Q.** What about the “binding to apoptotic and dead cells” value (HT1080 cells [2]; with annexin V-PE and propidium iodide) of the same compound?
**A.** The value was “bound to both apoptotic and dead cells”.

**Q.** What about the “distribution in annexin V-positive cells” value (HT1080 cells [5]) of the same compound?
**A.** Its value is “distributed in the cytoplasm”.

**Q.** And the “fluorescence in cells that did not label with annexin V” value (HT1080 cells [5])?
**A.** The value was “negligible”.
